Assay results from patent publication US20050026189A1, “Microbial operons” (priority 2003, published 2005).
Positions of bridges follow the written chain, without caps; N, C: chain ends. Non-standard residues stand in square brackets, D forms with d. Residues, ends and D or L forms follow the SMILES beside them. *: point of attachment. Ileψ(thiazoline)Cys = CC[C@H](C)[C@H](N)C1=N[C@H](C(=O)*)CS1; dOrn = NCCC[C@@H](N)C(=O)O

Test system: E. coli transcribing antisense RNA to rplL and rplJ (AS-rplL/J)
Assay: microbe, parasite or virus in culture
Assay type: cell-based
Conditions: for Fold Increase in Sensitivity: IC50 without IPTG versus IC50 with 400 μM IPTG; for Sensitivity Increased?: statistically significant decrease in the IC50 value in the presence of inducer (IPTG)
Description: The effectiveness of the above assays was validated using proliferation-required genes from E. coli which were identified using procedures similar to those described above. Antibiotics of various chemical classes and modes of action were purchased from Sigma Chemicals (St. Louis, Mo.). Stock solutions were prepared by dissolving each antibiotic in an appropriate aqueous solution based on information provided by the manufacturer. The final working solution of each antibiotic contained no more than 0.2% (w/v) of any organic solvent. To determine their potency against a bacterial strain engineered for transcription of an antisense comprising a nucleotide sequence complementary to a proliferation-required 50S ribosomal protein, each antibiotic was serially diluted two- or three-fold in growth medium supplemented with the appropriate antibiotic for maintenance of the antisense construct. At least ten dilutions were prepared for each antibiotic. 25 μL aliquots of each dilution were transferred to discrete wells of a 384-well microplate (the assay plate) using a multi-channel pipette. Quadruplicate wells were used for each dilution of an antibiotic under each treatment condition (plus and minus inducer). Each assay plate contained twenty wells for cell growth controls (growth medium replacing antibiotic), ten wells for each treatment (plus and minus inducer, in this example IPTG). Assay plates were usually divided into the two treatments: half the plate containing induced cells and an appropriate concentrations of inducer (in this example IPTG) to maintain the state of induction, the other half containing non-induced cells in the absence of IPTG.
Cells for the assay were prepared as follows. Bacterial cells containing a construct, from which transcription of antisense nucleic acid comprising a nucleotide sequence complementary to rplL and rplJ (AS-rplL/J), which encode proliferation-required 50S ribosomal subunit proteins, is inducible in the presence of IPTG, were grown into exponential growth (OD600 0.2 to 0.3) and then diluted 1:100 into fresh medium containing either 400 μM or 0 μM inducer (IPTG). These cultures were incubated at 37° C. for 2.5 hr. After a 2.5 hr incubation, induced and non-induced cells were respectively diluted into an assay medium at a final OD600 value of 0.0004. The medium contained an appropriate concentration of the antibiotic for the maintenance of the antisense construct. In addition, the medium used to dilute induced cells was supplemented with 800 μM IPTG so that addition to the assay plate would result in a final IPTG concentration of 400 μM. Induced and non-induced cell suspensions were dispensed (25 μl/well) into the appropriate wells of the assay plate as discussed previously. The plate was then loaded into a plate reader, incubated at constant temperature, and cell growth was monitored in each well by the measurement of light scattering at 595 nm. Growth was monitored every 5 minutes until the cell culture attained a stationary growth phase. For each concentration of antibiotic, a percentage inhibition of growth was calculated at the time point corresponding to mid-exponential growth for the associated control wells (no antibiotic, plus or minus IPTG). For each antibiotic and condition (plus or minus IPTG), a plot of percent inhibition versus log of antibiotic concentration was generated and the IC50 determined.

Compound	Fold Increase in Sensitivity [Fold]	Sensitivity Increased?	IC50 (+IPTG) (induced cells, 400 μM IPTG) [mg/L]	IC50 (−IPTG) (non-induced cells, 0 μM IPTG) [mg/L]
CC[C@H](C)[C@H](N)C1=N[C@H](C(=O)N[C@@H](CC(C)C)C(=O)N[C@H](CCC(=O)O)C(=O)N[C@H](C(=O)N[C@H]2CCCCNC(=O)[C@H](CC(N)=O)NC(=O)[C@@H](CC(=O)O)NC(=O)[C@H](Cc3cnc[nH]3)NC(=O)[C@@H](Cc3ccccc3)NC(=O)[C@H]([C@@H](C)CC)NC(=O)[C@@H](CCCN)NC2=O)[C@@H](C)CC)CS1 [Bacitracin] ({Ileψ(thiazoline)Cys}-L[dE]IK[dOrn]I[dF]H[dD]N; lactam 4-C)	1	No	–	–
O=C(N[C@H](CO)[C@H](O)c1ccc([N+](=O)[O-])cc1)C(Cl)Cl [Chloramphenicol]	307	Yes	–	–
C[C@H]1c2cccc(O)c2C(=O)C2=C(O)[C@]3(O)C(=O)C(C(N)=O)=C(O)[C@@H](N(C)C)[C@@H]3[C@@H](O)[C@@H]21 [Doxycycline]	15	–	–	–
CN(C)c1ccc(O)c2c1C[C@H]1C[C@H]3[C@H](N(C)C)C(O)=C(C(N)=O)C(=O)[C@@]3(O)C(O)=C1C2=O [Minocycline]	172	–	–	–
CC1COc2c(N3CCN(C)CC3)c(F)cc3c(=O)c(C(=O)O)cn1c23 (stereo not drawn) [Ofloxacin]	1	–	–	–
CN[C@@H]1[C@H](O)[C@H](NC)[C@H]2O[C@@]3(O)C(=O)C[C@@H](C)O[C@H]3O[C@@H]2[C@H]1O [Spectinomycin]	–	Yes	–	–
[H]/N=C(/N)N[C@H]1[C@H](O)[C@@H](O)[C@H](O[C@@H]2O[C@@H](C)[C@](O)(C=O)[C@H]2O[C@@H]2O[C@@H](CO)[C@H](O)[C@@H](O)[C@@H]2NC)[C@@H](N/C(N)=N\[H])[C@@H]1O [Streptomycin]	70	Yes	–	–
CN(C)[C@@H]1C(O)=C(C(N)=O)C(=O)[C@@]2(O)C(O)=C3C(=O)c4c(O)cccc4[C@@](C)(O)[C@H]3C[C@@H]12 [Tetracycline]	109	–	–	–
Gentamicin	141	Yes	0.01919	2.715
